Experimental data taken from publication PMC4301871, “WW Domains of the Yes-Kinase-Associated-Protein (YAP) Transcriptional Regulator Behave as Independent Units with Different Binding Preferences for PPxY Motif-Containing Ligands” (PLoS ONE, 2015).
Read-outs that look alike come from different tables or passages of the source.

Experiments:
[1] = biological target: T1, YAP-WW1-WW2 tandem construct (human YAP residues 165–271) (Homo sapiens, UniProt P46937); experiment: Isothermal titration calorimetry of peptide ligands with the YAP-WW1-WW2 tandem; assay type: binding; conditions: ITC, 25°C; for n (number of binding sites): 40 mM sodium phosphate pH 7.0 (10 mM β-mercaptoethanol for LATS2), binding model for one set of sites
T1 construct: residues 165–271 for tandem construct (YAP-WW1-WW2); poly-histidine (N, cleaved yes); GST (N, cleaved yes); made in house; host or cells: E. coli BL21 (DE3)

[2] = biological target: T2, YAP-WW1 (first WW domain of human YAP, residues 165–209) (Homo sapiens, UniProt P46937); experiment: Isothermal titration calorimetry of peptide ligands with isolated YAP-WW1; assay type: binding; conditions: ITC, 25°C; for n (number of binding sites) / Kd: 40 mM sodium phosphate pH 7.0 (10 mM β-mercaptoethanol for LATS2), one set of identical sites model, at least two experiments; for n (number of binding sites): variability about 1%; for Kd: variability about 10%; for -T·ΔSap / ΔGap / ΔHap: pH 7.0, one set of sites model; for ΔHap: variability about 5%
T2 construct: residues 165–209 for the first WW domain of human YAP (YAP-WW1); poly-histidine (N, cleaved yes); GST (N, cleaved yes); made in house; host or cells: E. coli BL21 (DE3)
Procedure: (§1) ITC experiments were carried out using a high-precision VP-ITC titration calorimeter (Microcal Inc., Northampton, Massachusetts). The WW domains were extensively dialyzed against 40 mM sodium phosphate buffer, pH 7.0, with the exception of those experiments using the LATS2 ligand, (containing a cysteine residue), for which the dialysis was performed in the presence of 10mM β-mercaptoethanol to reduce intermolecular di-sulphide bonds formed during ligand storage. Protein and peptide solutions, ranging from 20 to 40 μM for the proteins and from 0.8 to 2 mM for the ligands, were properly degassed to avoid bubble formation and equilibrated to 25°C prior to the titration experiment. In all cases, a profile of injection volumes from 3 to 20 μl was used to better define the titration curve. The heat evolved after each peptide injection was obtained from the integral of the calorimetric signal. The heat associated with the binding process was obtained as the difference between the heat of reaction and the corresponding heat of dilution, as obtained from independent titrations of the peptides into the buffer.
(§2) For the individual WW domains and those ligands with similar binding affinities for YAP-WW1 and YAP-WW2 domains (LATS1-a and LATS2), the resulting binding isotherms were analyzed by non-linear least-squares fittings to a model corresponding to a single set of identical sites, according to the equation:
(§3) Q=V0ΔH/2Ka[1+Ka[Lt]+nKa[Mt]+(1+Ka[Lt]+nKa[Mt])^2−4nKa2[Mt][Lt]] (equation 2)
(§4) , where Q is the net heat of binding, n is the number of binding sites, ΔH is the change in the enthalpy due to the binding process, Ka is the association constant, V0 is the active cell volume, and [Mt] and [Lt] are the total concentrations of macromolecule and the ligand, respectively.
(§5) Both models were implemented in Origin 7.0 software (OriginLab Corporation, Northampton, MA). For the least-squares fit using the one set of sites model, the number of binding sites, the association constant, and the binding enthalpy were considered as floating parameters, while in the analysis with the two set of sites model, only the two association constants and the two binding enthalpies were left to float. All experiments were performed at least twice. Typically, the variability of the experimental values was estimated to be about 1% in the number of binding sites, 5% in the binding enthalpy and 10% in the binding affinity.

[3] = biological target: T3, YAP-WW2 (second WW domain of human YAP, residues 228–271) (Homo sapiens, UniProt P46937); experiment: Isothermal titration calorimetry of peptide ligands with isolated YAP-WW2; assay type: binding; conditions: ITC, 25°C; for n (number of binding sites) / Kd: 40 mM sodium phosphate pH 7.0 (10 mM β-mercaptoethanol for LATS2), one set of identical sites model, at least two experiments; for n (number of binding sites): variability about 1%; for Kd: variability about 10%, n.b. = no binding detected; for -T·ΔSap / ΔGap / ΔHap: pH 7.0, one set of sites model; for ΔHap: variability about 5%
T3 construct: residues 228–271 for the second WW domain (YAP-WW2); poly-histidine (N, cleaved yes); GST (N, cleaved yes); made in house; host or cells: E. coli BL21 (DE3)
Procedure: as §1, §2, §3, §4, §5

[4] = system: YAP-WW1 domain; experiment: Phage ELISA of YAP-WW2-selected clones, displacement of p53BP2 from YAP-WW1; assay type: binding, human; conditions: YAP-WW1 compared with YAP-WW2
Procedure: The analysis of the binding preferences of the WW domains was performed by phage-display as previously described. Briefly, an N-term library in PIII was generated using a template derived from the pS2202d phagemid, containing the Erbin-PDZ domain kindly provided by Dr. Sachdev Sidhu (University of Toronto). The Erbin-PDZ sequence was removed by the introduction of four stop codons between the secretion signal and the linker required for the correct display of the library variants in the phage. A randomized sequence corresponding to a x5(L/P)PxYx5 peptide library containing the L/PPxY core motif for type 1 WW domains was subsequently introduced into the modified phagemid. The resulting library was then introduced into the SS320 strain by electroporation. The subsequent phage propagation led to 10^11 library diversity, which was isolated at 5 x 10^13 phages/ml in PBS-Tween (0.05%) buffer. The resulting library was then screened against immobilized GST-tagged YAP-WW2 domain (GST-YAP-WW2) in PBS, carrying out seven rounds of an iterative selection process. Single clones were chosen from round 3 to round 7 and tested for specific binding to the GST-YAP-WW2 by phage ELISA in a Tecan Infinite M200 instrument. […] The DNA from phages showing binding in the ELISA assay were used as PCR templates to amplify the peptide-encoding regions, which were then sequenced and analyzed.

[5] = pH 7.0, binding model for one set of sites
[6] = pH 7.0, model of two different sets of sites, n fixed to 1 each, first set of sites (first line)
[7] = pH 7.0, model of two different sets of sites, n fixed to 1 each, second set of sites (second line)
[8] = pH 7.0, two sets of sites model, n fixed to 1, first set of sites
[9] = pH 7.0, two sets of sites model, n fixed to 1, second set of sites

T3 sequence (P46937 228-271): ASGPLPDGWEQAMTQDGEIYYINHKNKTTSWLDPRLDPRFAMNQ
T1 sequence (P46937 165-271): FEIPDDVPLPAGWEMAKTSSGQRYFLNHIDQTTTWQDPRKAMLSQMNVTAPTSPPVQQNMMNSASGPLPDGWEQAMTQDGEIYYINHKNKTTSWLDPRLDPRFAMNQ
T2 sequence (P46937 165-209): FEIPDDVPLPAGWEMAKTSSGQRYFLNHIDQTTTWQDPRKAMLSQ

Compound | n (number of binding sites) [1] | -T·ΔSap [1, 5] | Kd [1, 5] | ΔGap [1, 5] | ΔHap [1, 5] | n (number of binding sites) [2] | Kd [2] | -T·ΔSap [2] | ΔGap [2] | ΔHap [2] | n (number of binding sites) [3] | Kd ([3]; read-out: Kd) | -T·ΔSap [3] | ΔGap [3] | ΔHap [3] | Kd [1, 6] | Kd [1, 7] | -T·ΔSap [1, 8] | ΔGap [1, 8] | ΔHap [1, 8] | also measured
CC(=O)N[C@@H](CC(N)=O)C(=O)N[C@@H](CCCNC(=N)N)C(=O)N[C@@H](CCC(N)=O)C(=O)N1CCC[C@H]1C(=O)N1CCC[C@H]1C(=O)N1CCC[C@H]1C(=O)N1CCC[C@H]1C(=O)N[C@@H](Cc1ccc(O)cc1)C(=O)N1CCC[C@H]1C(=O)N[C@@H](CC(C)C)C(=O)N[C@H](C(=O)N[C@@H](C)C(N)=O)[C@@H](C)O [LATS1-a] | 2.04 | 11.1 kcal/mol | 33.4 µM | -6.12 kcal/mol | -17.2 kcal/mol | 0.96 | 21.5 µM | 9.63 kcal/mol | -6.38 kcal/mol | -16 kcal/mol | 1.09 | 27 µM | 12 kcal/mol | -6.24 kcal/mol | -18.2 kcal/mol |  |  |  |  |  | 
AGRPPPPPYPGPPL |  |  |  |  |  |  |  |  |  |  |  |  |  |  |  |  |  |  |  |  | Interaction with the two WW domains of YAP (ELISA binding experiments) [4]: seems to interact similarly with the two WW domains of YAP
Ac-EGLWPPPYRPRR-NH2 [PTCH1-b] |  | 12.6 kcal/mol | 16.9 µM | -6.52 kcal/mol | -19.2 kcal/mol | 1.09 | 13.2 µM | 11.3 kcal/mol | -6.67 kcal/mol | -18 kcal/mol |  |  |  |  |  |  |  |  |  |  | Kd [3]: no interaction was detected and n.b.

Further compounds by falling Kd [2], results first:

n (number of binding sites) [1] | -T·ΔSap [1, 5] | Kd [1, 5] | ΔGap [1, 5] | ΔHap [1, 5] | n (number of binding sites) [2] | Kd [2] | -T·ΔSap [2] | ΔGap [2] | ΔHap [2] | n (number of binding sites) [3] | Kd ([3]; read-out: Kd) | -T·ΔSap [3] | ΔGap [3] | ΔHap [3] | Kd [1, 6] | Kd [1, 7] | -T·ΔSap [1, 8] | ΔGap [1, 8] | ΔHap [1, 8] | Compound | also measured
 |  |  |  |  | 0.95 | 27.6 µM | 9.3 kcal/mol | -6.24 kcal/mol | -15.5 kcal/mol | 0.91 | 45.8 µM | 9.82 kcal/mol | -5.93 kcal/mol | -15.8 kcal/mol | 24.7 µM | 47.4 µM | 6.33 kcal/mol | -6.31 kcal/mol | -12.6 kcal/mol | CC(=O)N[C@@H](CCCNC(=N)N)C(=O)N[C@@H](Cc1ccc(O)cc1)C(=O)N[C@@H](CO)C(=O)N1CCC[C@H]1C(=O)N1CCC[C@H]1C(=O)N1CCC[C@H]1C(=O)N1CCC[C@H]1C(=O)N[C@@H](Cc1ccc(O)cc1)C(=O)N[C@@H](CO)C(=O)N[C@@H](CO)C(=O)N[C@@H](Cc1c[nH]cn1)C(=O)N[C@@H](CO)C(N)=O [PTCH1-a] | -T·ΔSap [1, 9]: 12.1 kcal/mol; ΔGap [1, 9]: -5.9 kcal/mol; ΔHap [1, 9]: -18 kcal/mol
2.02 | 9.56 kcal/mol | 9.2 µM | -6.88 kcal/mol | -16.4 kcal/mol | 1.05 | 7.1 µM | 11.9 kcal/mol |  | -18.8 kcal/mol | 1.08 | 8.2 µM | 6.86 kcal/mol | -6.96 kcal/mol | -13.8 kcal/mol |  |  |  |  |  | Ac-RRCPPPPYPKHL-NH2 [LATS2] | 
 |  |  |  |  | 0.91 | 3.7 µM | 9.08 kcal/mol | -7.41 kcal/mol | -16.5 kcal/mol | 0.94 | 33.9 µM | 10.7 kcal/mol | -6.12 kcal/mol | -16.8 kcal/mol | 4.8 µM | 31.9 µM | 9.66 kcal/mol | -7.27 kcal/mol | -16.9 kcal/mol | Ac-YQGPPPPYPKHL-NH2 [LATS1-b] | -T·ΔSap [1, 9]: 6.24 kcal/mol; ΔGap [1, 9]: -6.14 kcal/mol; ΔHap [1, 9]: -12.4 kcal/mol
